Assay results as given in patent publication US9486456B2, “Treatment of esophageal motility disorder using sepiapterin, tetrahydrobiopterin and derivatives thereof” (The Board of Regents of the University of Texas System, priority 2006, dated 2016).
Read-outs that look alike come from different tables or passages of the source.

What was measured:
[1] = test system: nNOS; assay: nNOS dimerization in gastric LM-MP incubated in vitro; settings: DAHP 10 mM, 48 hours, healthy female rat gastric LM-MP
Description: (§1) Gastric LM-MPs were incubated for 48 hrs in the presence or the absence of DAHP (10 mM) and nNOS dimerization (FIG. 9A-9B) in tissues and NO release (FIG. 9C) in the media were assessed. (n=3).
(§2) The present invention examined whether treatment with DAHP in vitro uncoupled gastric nNOS dimerization and NO release in healthy female rats. Gastric longitudinal muscle-myenteric plexus (LM-MP) were incubated for 48 hours in the presence or absence of DHAP (10 mM). It was observed that inhibition of BH4 biosynthesis with DAHP decreased both nNOS dimerization (FIGS. 9A-9B) and NO release (FIG. 9C). These additional data further support the hypothesis that impaired biosynthesis of gastric BH4 accounts for the decrease in nNOS activity and nitrergic relaxation in female diabetic gastroparesis.

[2] = test system: gastric tissues; assay: Nitrergic relaxation of gastric tissues after in vitro incubation (organ bath); parameters: species or system rat
[3] = test system: gastric LM-MPs; assay: NO release from gastric LM-MP incubated with DAHP; settings: DAHP 10 mM, 48 hours, healthy female rat gastric LM-MP
Description: as §1
Gastric LM-MPs were incubated for 24 hours in DMEM supplemented with 2% neurobasal medium (NB27) and 1% antibiotics. The concentration of NO (micromoles/mg tissue) was measured using readily available NO kit (Cayman corporation). […] The present invention contemplates examining whether supplementation of BH4 and female sex hormones restores reduced NO release in diabetic female gastric LM-MP tissues.
as §2

[4] = test system: nNOSalpha protein; assay: nNOSalpha protein expression, Western blot; assay type: in vivo, rat; settings: for nNOSalpha protein level: diabetic female rat gastric antrum, sepiapterin 10 days or BH4 2 weeks, 20 mg kg^−1 per day
Description: nNOSa protein was quantified in gastric antrum homogenates from all groups using standard western blot analysis, as described in our previous study (94). Proteins were measured by Bio-Rad protein assay (Bio-Rad, Hercules, Calif.) and 30 μg protein was separated by 6% SDS polyacrylamide gel electrophoresis (SDS-PAGE). The membrane was immunoblotted with polyclonal nNOSa primary antibody (Zymed Laboratories Inc., CA) and anti-rabbit IgG conjugated with horseradish peroxidase (Sigma Chemical, St. Louis, Mo.) as secondary antibody. Binding of antibodies to the blots was detected with enhanced chemiluminescence system (ECL, Amersham Pharmacia Biotech, Piscataway, N.J.) following manufacturer's instructions. Stripped blots were re-probed with g-tubulin specific polyclonal antibodies (Sigma Chemical, St. Louis, Mo.) to enable normalization of signals between samples. Band intensities were analyzed using Bio-Rad Gel Doc (Bio-Rad, Hercules, Calif.).

[5] = test system: female rats; assay: Solid gastric emptying studies; assay type: in vivo, rat; settings: for Effect on gastric emptying for solids: OVX female rats, 21 day release pellets E2 2 mg or P4 20 mg per kg
Description: In addition, using the similar gastric emptying protocol, accelerated gastric emptying was observed instead of delayed gastric emptying in spontaneous diabetic female but not in male diabetic animals (101).
According to the protocol, animals were fasted over night (provide water). On the next day, known amount of food was fed to the animals for 3 h. At the end of 3 h collected the remaining food from the cage and calculated the amount of food intake. Then fast the animals for 4 hrs without food and water. At the end of fast, animals were euthanized, collected the gastric tissue and measured the weight of the whole stomach. Then removed the food contents by opening the stomach and measured the empty stomach weight. The rate of gastric emptying was calculated according to the following equation: gastric emptying (% in 4 h)=(1−gastric content food intake^−1)×100.

[6] = test system: rats; assay: Intragastric (antrum) pressure by ambulatory telemetry; assay type: in vivo, rat; settings: L-NAME 200 mg/day/kg s.c. osmotic mini-pump, 4 days
Description: The intragastric antrum pressure (IGAP) was measured in normal and diabetic male (FIG. 3A) and female (FIG. 3B) rats. The transducer pressure catheter was introduced into the gastric antrum cavity 5 mm proximal to the pylorus to record IGAP (mmHg×sec). After recording the baseline IGAP, N^G-nitro-L-arginine methyl ester (L-NAME, 200 mg/day/kg body weight (BW)/rat) was administered subcutaneously in the same rats by osmotic mini-pumps (Alza, Palo Alto, Calif., model 2ML1 with a pumping rate of 10 μl/hour) for 4 days. All subsequent studies were performed 1 week after surgery in overnight fasted rats that were awake and in a free-moving state. Pressure recordings were performed at least 2-3 hours between 9-12 am. Bilateral ovariectomy was performed as reported previously. Dietary BH4 (25 mg/day/kg body weight (BE)/rat). *p<0.05. ANOVA.
Intragastric pressure (IGP) was measured using ambulatory telemetric device. […]
Dietary BH4 (25 mg/kg b.w/rat/day) was supplemented for female rats for 12 weeks beginning from day 2 after diabetic induction. Intragastric pressure (IGP) was measured in female control, diabetic and diabetic+BH4 treated rats. […] In another experiment, diabetic females were treated for 3 weeks with BH4 and nNOS alpha protein expression was measured in treated and untreated gastric tissues.

[7] = test system: nNOSalpha; assay: nNOSalpha dimerization, LT-SDS-PAGE, after in vivo treatment; parameters: species or system rat; settings: for nNOSalpha dimmer/monomer level: diabetic female rat gastric antrum, sepiapterin 10 days or BH4 2 weeks, 20 mg kg^−1 per day
Description: Levels of nNOSa monomer and dimer were quantified by western blotting via Low temperature (LT)-PAGE in gastric antrum homogenates as described previously (94). LT-SDS-PAGE was performed on ice. The low-temperature process was used to identify nNOS dimers and monomers in the native state as low temperature is known to prevent monomerization of nNOS dimmers. For the low-temperature processing, 30 μg of protein in standard Laemmli buffer at 4° C. was used for SDS-PAGE. The mixture was incubated at 0° C. for 30 min before LT-SDS-PAGE using a 6% separating gel. All gels and buffers were pre-equilibrated to 4° C. prior to electrophoresis and the buffer tank placed in an ice-bath during electrophoresis to maintain the gel temperature below 15° C. A polyclonal antibody specific to nNOSa (Zymed Laboratories) and anti-rabbit IgG conjugated with horseradish peroxidase (Sigma Chemical, St. Louis, Mo.) were used as the primary and secondary antibodies, respectively.

[8] = test system: gastric muscle strips; assay: EFS-induced nitrergic (NANC) relaxation of gastric muscle strips after in vivo treatment (organ bath); parameters: species or system rat
Description: Electric field stimulation (EFS)-induced NANC relaxation was studied in circular gastric antrum muscle strips. Muscle strips were tied with silk thread at both ends and were mounted in 10-ml water-jacketed organ baths containing Krebs buffer (11 mM glucose) at 37° C. and continuously bubbled with 95% O2-5% CO2 (Radnoti Glass Technology, Monrovia, Calif.). Tension for each muscle strip was monitored with an isometric force transducer and analyzed by a digital recording system (Biopac Systems, Santa Barbara, Calif.). A passive tension equal to 2 g was applied on each strip in the 1 h equilibration period through an incremental increase (0.5 g, four times, at 15 min interval). Gastric antrum muscle strips were exposed to atropine, phentolamine and propranolol (10 μmol each) in bath solution for 1 h to block cholinergic and adrenergic responses. 5-hydroxytryptamine (5-HT; 100 μM) pre-contracted strips were exposed to EFS (90 V, 2 Hz, 1-ms pulse for duration of 1 min) to elicit NANC relaxation.
To investigate the in vivo effect of methotrexate (MTX) on EFS induced nitrergic relaxation; a group of animals were supplemented with MTX (inhibitor of dihydro folate reductase, DHFR) 3.75 mg kg^−1 body wt. per twice a day for 4 days. Gastric strips from control animals and MTX treated animals were incubated in organ bath and nitrergic relaxation was measured by EFS. At the end of each experiment, the muscle strip was blotted dry with filter paper and weighed. Comparisons between groups were performed by measuring the area under the curve (AUC mg^−1 tissue) of the EFS-induced relaxation (AUCR) for 1 min and the baseline for 1 min (AUCB) according to the formula (AUCR−AUCB) weight of tissue (mg)^−1=AUC mg of tissue^−1.

[9] = test system: gastric antrum muscle strip; assay: In vitro NO release from gastric antrum strips (total nitrite); parameters: species or system rat; settings: 48 h incubation
Description: Animals from control groups were killed by CO2 asphyxiation, the abdominal cavity opened, and the stomach dissected and transferred in chilled oxygenated Krebs bicarbonate solution of the following composition (in mmol): 118.0 NaCl, 4.7 KCl, 25.0 NaHCO3, 1.5 CaCl2, 1.2 MgSO4, 1.2 KH2PO4, and 11.5 glucose (pH 7.4). Antrum tissue was harvested and cut into mucosa-free strips and were cultured for 48 h (37° C., 5% CO2) in […] of phenol red-free DMEM supplemented with NB27 (2%) and antibiotics (1%) in the presence of normal glucose (control), control+MTX (100 μM), control+MTX+SEP (100 μM, 100 μM). On completion of incubation, DMEM ([…]) was collected and stored at −80° C. for analysis of NO released in medium during incubation period. NO released in the medium was analyzed as total nitrite (metabolic byproduct of NO) following the protocol supplied with a commercially available kit (EMD Chemicals, Gibbstown, N.J.).

[10] = Body weight in control and STZ-diabetic female rats; assay type: in vivo, rat; settings: STZ-diabetic female rats + SEP 20 mg kg^−1 day^−1, 10 days
Description: (§3) Diabetes was induced in overnight fasted animals by a single intraperitoneal injection of streptozotocin (STZ, 55 mg kg^−1) (Sigma Chemical, St. Louis, Mo.) prepared in 9 mmol citrate buffer, pH 4.0. Control animals were injected with the vehicle (9 mmol citrate buffer, pH 4.0) (94). Blood glucose levels were examined in overnight fasted animals, 48 h post STZ injection. […] Blood glucose levels in vehicle-treated overnight fasting rats ranged between 80-95 mg dl^−1. Both control and diabetic female rats were selected during the diestrus phase of the estrous cycle using vaginal smear testing method [by measuring vaginal cytology (90-100% of leucocytes) under microscope] for further experiments. As reported earlier, 60-70% of diabetic rats show a persistent diestrous stage of the estrous cycle (data not shown) (95-96).
(§4) At the end of 7th week of diabetes induction, animals were divided into four groups, i.e. control female rats (C), diabetic female rats (DB), BH4 supplemented diabetic female rats (DB+BH4) and SEP supplemented diabetic female rats (DB+SEP). DB+BH4 were provided with BH4 pellets (20 mg kg^−1 body wt day^−1) for next 2 weeks. […] Tissue samples were snap frozen in liquid nitrogen and stored at −80° C. until analyzed. BH4 or SEP-pellets used in this study were prepared by compressing (Schircks Laboratories, Switzerland) with rodent chow and stored at −20° C. until used. […]

[11] = Fasting blood glucose in control and STZ-diabetic female rats; assay type: in vivo, rat
Description: as §3, §4

[12] = healthy female rats, MTX 3.75 mg kg^−1 i.p. twice a day, 4 days
[13] = diabetic female rats + dietary sepiapterin 20 mg kg^−1, 10 days

Nc1cc(O)nc(N)n1 [DAHP, 2,4-diamino-6-hydroxypyrimidine]
Effect on nNOS dimerization [1]: decreased
Effect on nitrergic relaxation ([2]; DAHP 10 mM, 3 hours incubation, female control gastric tissues, n=2): inhibited
Effect on NO release [3]: decreased

C[C@]12CC[C@@H]3c4ccc(O)cc4CC[C@H]3[C@@H]1CC[C@@H]2O [E2, estradiol-17beta]
Effect on reduced nNOSalpha protein expression ([4]; diabetic female rat gastric tissues, E2 2 mg/kg 21 day pellet): significantly restored
Effect on gastric emptying for solids [5]: significantly delayed
Effect on delayed solid gastric emptying ([5]; diabetic female rats, E2 2 mg/kg, 3 weeks): significantly restored

COC(=O)[C@@H](N)CCCNC(=N)N[N+](=O)[O-] [L-NAME, N^G-nitro-L-arginine methyl ester]
Effect on IGAP ([6]; female rats): significantly elevated
Effect on IGAP ([6]; male rats): decreased
Effect on nitrergic relaxation ([2]; preincubation L-NAME 10^−4M, FC and FD groups, 2 Hz): significant inhibition

CN(Cc1cnc2nc(N)nc(N)c2n1)c1ccc(C(=O)N[C@@H](CCC(=O)O)C(=O)O)cc1 [MTX, methotrexate]
nNOSalpha dimer/monomer ratio ([7]; female rat gastric antrum, MTX 3.75 mg kg^−1 twice a day, 4 days): 0.2±0.04
nitrergic relaxation, antrum, EFS 2 Hz [8, 12]: −0.08±0.04 AUC mg^−1 tissue
nitrergic relaxation, fundus, EFS 2 Hz [8, 12]: −0.17±0.076 AUC mg^−1 tissue
nitrergic relaxation, pylorus, EFS 2 Hz [8, 12]: −0.13±0.05 AUC mg^−1 tissue
NO release ([9]; MTX 100 μM): 0.73±0.15

CC(=O)[C@H]1CC[C@H]2[C@@H]3CCC4=CC(=O)CC[C@]4(C)[C@H]3CC[C@]12C [P4, progesterone]
Effect on gastric emptying for solids [5]: not

NC1=N[C@H](O)[C@H]2[C@H]3O[C@]4(O)O[C@@H]([C@@H](O)[C@@]2(N1)[C@@H]4O)[C@]3(O)CO [TTX, tetrodotoxin]
Effect on nitrergic relaxation [2]: abolished

C[C@H](O)C(=O)C1=Nc2c(nc(N)[nH]c2=O)NC1 [sepiapterin]
nNOSalpha dimmer/monomer level [7]: 0.64±0.07
Change in nNOSalpha protein expression ([4]; control female rat gastric antrum, BH4 or sepiapterin): no change
nNOSalpha protein level [4]: 0.88±0.15
solid gastric emptying (% in 4 h) ([5]; control female rats + dietary sepiapterin 20 mg kg^−1, 10 days): 74±4 % in 4 h
solid gastric emptying (% in 4 h) [5, 13]: 67.0±8.2 % in 4 h
Body Weight [10]: 188 ± 4.3 g
Body Weight ([10]; listed as SEP): 188 ± 4.3 g
nitrergic relaxation, gastric antrum, EFS 2 Hz ([8]; control female rats + sepiapterin): −0.51±0.06 AUC mg^−1 tissue
nitrergic relaxation, gastric antrum, EFS 2 Hz [8, 13]: −0.35±0.03 AUC mg^−1 tissue
NO release ([9]; MTX 100 μM + SEP 100 μM): 1.02±0.19
Blood Glucose ([11]; STZ-diabetic female rats + SEP, fasting): 494.5 ± 13.96 mg/dL
Effect on blood glucose levels ([11]; both control and diabetic female rats): unchanged

C[C@H](O)[C@H](O)[C@H]1CNc2nc(N)[nH]c(=O)c2N1 [tetrahydrobiopterin]
nNOSalpha dimmer/monomer level [7]: 0.36±0.11
nNOSalpha protein level [4]: 0.42±0.05
